Activity calls are given as the source filed them. No cut-off for these calls is given here.
What was measured:
Escherichia coli [1] = assay: Antibiofilm activity against Escherichia coli ATCC 10536 assessed as reduction in preformed bacterial biofilm at 150 microg/ml measured after 24 hrs by safranin staining based spectrophotometer EIA reader analysis; type: functional; design: scale not given: the % may be the effect or the level left; details: dose 150 µg/ml
Escherichia coli [2] = assay: Effect on swarming capacity of Escherichia coli ATCC 10536 assessed as reduction of motility zone at 1/2 times of MIC incubated for 24 hrs; type: functional; design: scale not given: the % may be the effect or the level left
Pseudomonas aeruginosa [3] = assay: Bactericidal activity against Pseudomonas aeruginosa ATCC 9027 assessed as bacterial growth inhibition measured after 24 to 48 hrs by CLSI based microdilution method; type: functional; details: time 24-48 hrs
Escherichia coli [4] = assay: Bactericidal activity against Escherichia coli ATCC 10536 assessed as planktonic growth inhibition at 1/4 times of MIC measured after 24 hrs by spectrophotometer EIA reader analysis; type: functional
Escherichia coli [5] = assay: Antibiofilm activity against Escherichia coli ATCC 10536 assessed as inhibition of biofilm biomass at 1/8 times of MIC measured after 24 hrs by safranin staining based spectrophotometer EIA reader analysis; type: functional
Cell membrane [6] = assay: Induction of outer membrane permeabilization in Pseudomonas aeruginosa ATCC 9027 assessed as crystal violet uptake at MIC incubated for 60 mins by crystal violet staining based UV-VIS spectrophotometer ( Rvb = 53%)
Pseudomonas aeruginosa [7] = assay: Antibiofilm activity against Pseudomonas aeruginosa ATCC 9027 assessed as reduction in preformed bacterial biofilm at 18.8 microg/ml measured after 24 hrs by safranin staining based spectrophotometer EIA reader analysis; type: functional; design: scale not given: the % may be the effect or the level left; details: dose 18.8 µg/ml
Pseudomonas aeruginosa [8] = assay: Effect on swarming capacity of Pseudomonas aeruginosa ATCC 9027 assessed as reduction of motility zone at 1/2 times of MIC incubated for 24 hrs; type: functional; design: scale not given: the % may be the effect or the level left
Pseudomonas aeruginosa [9] = assay: Antibacterial activity against Pseudomonas aeruginosa DSM 102273 assessed as bacterial growth inhibition measured after 24 hrs by CLSI based microdilution method; type: functional
Pseudomonas aeruginosa [10] = assay: Antibacterial activity against ofloxacin resistant Pseudomonas aeruginosa 1 ocular isolate assessed as bacterial growth inhibition measured after 24 hrs by CLSI based microdilution method; type: functional
Escherichia coli [11] = assay: Antibiofilm activity against Escherichia coli ATCC 10536 assessed as inhibition of biofilm formation at 1/4 times of MIC measured after 24 hrs by safranin staining based light microscopy; type: functional, organism-based
Pseudomonas aeruginosa [12] = assay: Effect on twitching capacity of ofloxacin resistant Pseudomonas aeruginosa 1 ocular isolate assessed as reduction of motility zone at 1/2 times of MIC incubated for 24 hrs; type: functional; design: scale not given: the % may be the effect or the level left
Escherichia coli [13] = assay: Antibiofilm activity against Escherichia coli ATCC 10536 assessed as inhibition of biofilm formation at 1/2 times of MIC measured after 24 hrs by safranin staining based light microscopy; type: functional, organism-based
Escherichia coli [14] = assay: Bactericidal activity against Escherichia coli ATCC 10536 assessed as bacterial growth inhibition measured after 24 to 48 hrs by CLSI based microdilution method; type: functional; details: time 24-48 hrs
Escherichia coli [15] = assay: Antibiofilm activity against Escherichia coli ATCC 10536 assessed as formation of looser colonies at 1/2 times of MIC measured after 24 hrs by safranin staining based light microscopy; type: functional, organism-based
Escherichia coli [16] = assay: Bactericidal activity against Escherichia coli ATCC 10536 assessed as planktonic growth inhibition at 1/8 times of MIC measured after 24 hrs by spectrophotometer EIA reader analysis; type: functional
Escherichia coli [17] = assay: Antibiofilm activity against Escherichia coli ATCC 10536 assessed as formation of looser colonies at 1/4 times of MIC measured after 24 hrs by safranin staining based light microscopy; type: functional, organism-based
Pseudomonas aeruginosa [18] = assay: Antibiofilm activity against Pseudomonas aeruginosa ATCC 9027 assessed as reduction in preformed bacterial biofilm at 37.6 microg/ml measured after 24 hrs by safranin staining based spectrophotometer EIA reader analysis; type: functional; design: scale not given: the % may be the effect or the level left; details: dose 37.6 µg/ml
Pseudomonas aeruginosa [19] = assay: Antibiofilm activity against Pseudomonas aeruginosa ATCC 9027 assessed as inhibition of biofilm biomass at 1/2 times of MIC measured after 24 hrs by safranin staining based spectrophotometer EIA reader analysis; type: functional
Pseudomonas aeruginosa [20] = assay: Effect on twitching capacity of Pseudomonas aeruginosa ATCC 9027 assessed as reduction of motility zone at 1/2 times of MIC incubated for 24 hrs; type: functional; design: scale not given: the % may be the effect or the level left
Escherichia coli [21] = assay: Antibacterial activity against Escherichia coli ATCC 10536 assessed as bacterial growth inhibition measured after 24 hrs by CLSI based microdilution method; type: functional
Pseudomonas aeruginosa [22] = assay: Antibiofilm activity against ofloxacin resistant Pseudomonas aeruginosa 1 ocular isolate assessed as inhibition of biofilm biomass at 1/2 times of MIC measured after 24 hrs by safranin staining based spectrophotometer EIA reader analysis; type: functional
Escherichia coli [23] = assay: Antibiofilm activity against Escherichia coli ATCC 10536 assessed as inhibition of biofilm biomass at 1/2 times of MIC measured after 24 hrs by safranin staining based spectrophotometer EIA reader analysis; type: functional
Pseudomonas aeruginosa [24] = assay: Antibacterial activity against Pseudomonas aeruginosa ATCC 9027 assessed as bacterial growth inhibition measured after 24 hrs by CLSI based microdilution method; type: functional
Cell membrane [25] = assay: Induction of outer membrane permeabilization in Escherichia coli ATCC 10536 assessed as crystal violet uptake at MIC incubated for 60 mins by crystal violet staining based UV-VIS spectrophotometer ( Rvb = 56%)
Pseudomonas aeruginosa [26] = assay: Antibiofilm activity against Pseudomonas aeruginosa ATCC 9027 assessed as reduction in preformed bacterial biofilm at 75 microg/ml measured after 24 hrs by safranin staining based spectrophotometer EIA reader analysis; type: functional; design: scale not given: the % may be the effect or the level left; details: dose 75 µg/ml
Pseudomonas aeruginosa [27] = assay: Bactericidal activity against Pseudomonas aeruginosa DSM 102273 assessed as bacterial growth inhibition measured after 24 to 48 hrs by CLSI based microdilution method; type: functional; details: time 24-48 hrs
Escherichia coli [28] = assay: Antibiofilm activity against Escherichia coli ATCC 10536 assessed as inhibition of biofilm biomass at 1/4 times of MIC measured after 24 hrs by safranin staining based spectrophotometer EIA reader analysis; type: functional
Escherichia coli [29] = assay: Effect on twitching capacity of Escherichia coli ATCC 10536 assessed as reduction of motility zone at 1/2 times of MIC incubated for 24 hrs; type: functional; design: scale not given: the % may be the effect or the level left
Pseudomonas aeruginosa [30] = assay: Bactericidal activity against ofloxacin resistant Pseudomonas aeruginosa 1 ocular isolate assessed as bacterial growth inhibition measured after 24 to 48 hrs by CLSI based microdilution method; type: functional; details: time 24-48 hrs

## CCCCCCCCCCCCOc1c2cc(C[N+](C)(C)CCO)cc1Cc1cc(C[N+](C)(C)CCO)cc(c1OCCCCCCCCCCCC)Cc1cc(C[N+](C)(C)CCO)cc(c1OCCCCCCCCCCCC)Cc1cc(C[N+](C)(C)CCO)cc(c1OCCCCCCCCCCCC)C2.[Cl-].[Cl-].[Cl-].[Cl-]
Escherichia coli [1]
  Activity: 66.5%
Escherichia coli [2]
  Activity: 50%
Pseudomonas aeruginosa [3]
  MBC: 18.8 µg/mL
Escherichia coli [4]
  inhibition (INH): 14.5%
Escherichia coli [5]
  inhibition (INH): 51%
Cell membrane [6]
  Activity: 71.6%
Pseudomonas aeruginosa [7]
  Activity: 37%
Pseudomonas aeruginosa [8]
  Activity: 50%
Pseudomonas aeruginosa [9]
  MIC: 18.8 µg/mL
Pseudomonas aeruginosa [10]
  MIC: 9.4 µg/mL
Escherichia coli [11]
  Activity: Active
Pseudomonas aeruginosa [12]
  Activity: 50%
Escherichia coli [13]
  Activity: Active
Escherichia coli [14]
  MBC: 18.8 µg/mL
Escherichia coli [15]
  Activity: Active
Escherichia coli [16]
  inhibition (INH): 1.8%
Escherichia coli [17]
  Activity: Active
Pseudomonas aeruginosa [18]
  Activity: 37%
Pseudomonas aeruginosa [19]
  inhibition (INH): 40%
Pseudomonas aeruginosa [20]
  Activity: 50%
Escherichia coli [21]
  MIC: 18.8 µg/mL
Pseudomonas aeruginosa [22]
  inhibition (INH): 40%
Escherichia coli [23]
  inhibition (INH): 90.4%
Pseudomonas aeruginosa [24]
  MIC: 9.4 µg/mL
Cell membrane [25]
  Activity: 78.8%
Pseudomonas aeruginosa [26]
  Activity: 58%
Pseudomonas aeruginosa [27]
  MBC: 18.8 µg/mL
Escherichia coli [28]
  inhibition (INH): 77.6%
Escherichia coli [29]
  Activity: 50%
Pseudomonas aeruginosa [30]
  MBC: 18.8 µg/mL
